“And” between values parts separate entries of the source, which are not always exact repeats. Equal values may be shown once.
Experiments:
[1] = biological target: T1, androgen receptor (AdEasy+rAR, COS-7 cells) (Rattus norvegicus, UniProt P15207); assay: COS-7 Whole-Cell Androgen Receptor Binding Assay, Adenovirus Transduction; conditions: for % Inhibition, COS Binding / inhibition at 3 µM: concentration of 3000 nM; for IC50: read-out: IC50 (nM), COS Binding
T1 construct: expressed in transfected cells; host or cells: COS-7 cells transduced with adenovirus AdEasy+rAR
T1 sequence (P15207 1-902): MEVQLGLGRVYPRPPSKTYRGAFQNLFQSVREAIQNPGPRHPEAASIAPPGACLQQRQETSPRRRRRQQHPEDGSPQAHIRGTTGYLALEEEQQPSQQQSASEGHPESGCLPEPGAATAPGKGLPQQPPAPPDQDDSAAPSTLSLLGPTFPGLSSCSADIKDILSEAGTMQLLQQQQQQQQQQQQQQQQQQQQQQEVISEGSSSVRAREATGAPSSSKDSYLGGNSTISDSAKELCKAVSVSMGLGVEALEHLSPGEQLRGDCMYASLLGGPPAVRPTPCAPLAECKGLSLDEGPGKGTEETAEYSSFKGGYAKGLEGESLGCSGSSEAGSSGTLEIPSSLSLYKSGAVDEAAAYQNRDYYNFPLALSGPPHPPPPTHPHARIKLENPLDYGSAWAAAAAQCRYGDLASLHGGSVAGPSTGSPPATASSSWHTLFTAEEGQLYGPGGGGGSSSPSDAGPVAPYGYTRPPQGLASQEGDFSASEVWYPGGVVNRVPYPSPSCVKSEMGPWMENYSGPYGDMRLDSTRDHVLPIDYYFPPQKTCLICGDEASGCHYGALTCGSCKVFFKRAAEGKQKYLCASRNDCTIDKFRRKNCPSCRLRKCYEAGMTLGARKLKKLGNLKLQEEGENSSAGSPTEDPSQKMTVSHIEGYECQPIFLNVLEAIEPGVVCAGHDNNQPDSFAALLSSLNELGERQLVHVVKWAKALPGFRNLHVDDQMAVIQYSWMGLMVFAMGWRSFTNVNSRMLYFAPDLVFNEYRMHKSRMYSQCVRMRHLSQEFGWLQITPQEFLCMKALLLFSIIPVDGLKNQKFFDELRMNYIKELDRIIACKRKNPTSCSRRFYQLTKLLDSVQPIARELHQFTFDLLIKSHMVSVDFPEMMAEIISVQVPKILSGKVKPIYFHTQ
Summary of the method: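 COS-7 cells in phenol red-free DMEM/F12 with 10% charcoal-treated FBS were transduced with AdEasy+rAR adenovirus (moi 1:50 per well), exposed to test compound in duplicate and incubated for 48 h at 37° C. Cells were then lysed in 0.5% Triton X-100 and bound radioactivity counted by scintillation.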

[2] = biological target: T2, androgen receptor (AdEasy+rAR, L929 cells) (Rattus norvegicus, UniProt P15207); assay: L929 Androgen Receptor Functional Assay, Adenovirus Transduction; type: cell-based; conditions: for % Activity, L929 androgen receptor functional assay / EC50: agonist testing; for inhibition at 3 µM: L929, antagonist testing with R1881, 3000 nM; for IC50: antagonist testing with R1881; for % Inhibition, L929 androgen receptor functional assay: antagonist testing with R1881, 3000 nM
T2 construct: expressed in transfected cells; host or cells: L929 cells transduced with adenovirus AdEasy+rAR
T2 sequence (P15207 1-902): T1 sequence (P15207 1-902)
Summary of the method: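 Luminescent reporter readout after 48 h at 37 °C: rat AR delivered by adenovirus (AdEasy+rAR, moi 1:500) into L929 cells grown without phenol red in charcoal-treated serum. Antagonist wells also received R1881 (2.5× dilution at 2.5 nM).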

Row | Compound | % Activity, L929 androgen receptor functional assay ([2]; 3000 nM) [%] | inhibition at 3 µM [1] [%] | IC50 [1] | inhibition at 3 µM [2] [%] | further results
1 | CC(O)(C[S+]([O-])Cc1ccccc1)c1cc2cc([N+](=O)[O-])c(C(F)(F)F)cc2[nH]1 (mixture of isomers) [Compound 161] | 2 |  |  |  | % Inhibition, COS Binding [1]: 20%
2 | CC(C)SCC(C)(O)c1cc2cc([N+](=O)[O-])c(C(F)(F)F)cc2[nH]1 (centres unmarked) [Compound 164] | 2 | 68 | > 1000 nM | 71 | 
3 | CCSCC(C)(O)c1cc2cc([N+](=O)[O-])c(C(F)(F)F)cc2n1S(C)(=O)=O (centres unmarked) [Compound 141] | 0 | 42 | > 3000 nM | 42 | 
4 | CCS(=O)(=O)CC(C)(O)c1cc2cc([N+](=O)[O-])c(C(F)(F)F)cc2[nH]1 (centres unmarked) [Compound 151] |  |  | > 970 nM and 2190 nM |  | % Inhibition, COS Binding ([1]; 3 µM): 55%; EC50 [2]: > 8000 nM; % Activity, L929 androgen receptor functional assay ([2]; @ 8000 nM): −1 @ 8000 nM %; IC50 [2]: 533 nM
5 | CC(C)CSCC(C)(O)c1cc2cc([N+](=O)[O-])c(C(F)(F)F)cc2[nH]1 (centres unmarked) [Compound 170] | 2 | 67 | > 3000 nM | 67 | 
6 | CC(O)(CS(C)(=O)=O)c1cc2cc([N+](=O)[O-])c(C(F)(F)F)cc2[nH]1 (centres unmarked) [Compound 140] | 0 |  | > 1500 nM |  | % Inhibition, COS Binding ([1]; 3 µM): 51.5%; % Inhibition, L929 androgen receptor functional assay ([2]; 3 µM): 78%
7 | CC(O)(CCS(C)(=O)=O)c1cc2cc([N+](=O)[O-])c(C(F)(F)F)cc2[nH]1 (centres unmarked) [Compound 49] | 2 | 30 | > 3000 nM | 8 | 
8 | COc1ccc(S(=O)(=O)CC(C)(O)c2cc3cc(Cl)c(C(F)(F)F)cc3[nH]2)cc1 (racemic) [Compound 129] | −5 |  |  |  | % Inhibition, COS Binding [1]: 10%; % Inhibition, L929 androgen receptor functional assay [2]: −8%
9 | CCSCC(C)(O)c1cc2cc([N+](=O)[O-])c(C(F)(F)F)cc2[nH]1 (single isomer, unassigned) [Compound 149] | 2 | 63 | 780 nM and > 790 nM | 77 | 
10 | CC(O)(CSc1ccc(O)cc1)c1cc2cc(Cl)c(C(F)(F)F)cc2[nH]1 (centres unmarked) [Compound 120] | −5 | 86 | 205 nM | 44 | 
11 | CCSCC(C)(O)c1cc2cc([N+](=O)[O-])c(C(F)(F)F)cc2[nH]1 (single isomer, unassigned) [Compound 150] |  |  | 165 nM and 627 nM |  | % Inhibition, COS Binding ([1]; 3 µM): 81% and 74%; EC50 [2]: > 8000 nM; % Activity, L929 androgen receptor functional assay ([2]; @ 8000 nM): 0 @ 8000 nM %; IC50 [2]: 303 nM
12 | CC[S+]([O-])C[C@](C)(O)c1cc2cc([N+](=O)[O-])c(C(F)(F)F)cc2[nH]1 (stereo in doubt) [Compound 155, 1-Ethanesulfinyl-2-(5-nitro-6-trifluoromethyl-1H-indol-2-yl)-propan-2-ol] | 2 | 35 |  | -2 | 
13 | CCCSCC(C)(O)c1cc2cc([N+](=O)[O-])c(C(F)(F)F)cc2[nH]1 (centres unmarked) [Compound 168] | 3 | 60 | > 3000 nM | 26 | 
14 | CC(O)(CS(=O)(=O)c1ccc(N)cc1)c1cc2cc(Cl)c(C(F)(F)F)cc2[nH]1 (centres unmarked) [Compound 118] |  | 62 | > 1500 nM | 63 | EC50 [2]: > 8000 nM; % Activity, L929 androgen receptor functional assay ([2]; @ 8000 nM): −2 @ 8000 nM %; IC50 [2]: 3070 nM
15 | CC(O)(CSCC(F)(F)F)c1cc2cc([N+](=O)[O-])c(C(F)(F)F)cc2[nH]1 (centres unmarked) [Compound 171] |  | 92 | 145 nM |  | % Inhibition, COS Binding ([1]; 3 µM): 94%; EC50 [2]: > 8000 nM; % Activity, L929 androgen receptor functional assay ([2]; 3000 nM, 3 µM): 11%; % Activity, L929 androgen receptor functional assay ([2]; @ 8000 nM): −1 @ 8000 nM %; IC50 [2]: 366 nM; % Inhibition, L929 androgen receptor functional assay ([2]; 3 µM): 101% and 70%
16 | CSCC(C)(O)c1cc2cc(C#N)c(C(F)(F)F)cc2[nH]1 (centres unmarked) [Compound 136] | 0 | 4.8 | 527 nM | 75 | 
17 | CSCC(C)(O)c1cc2cc([N+](=O)[O-])c(C(F)(F)F)cc2[nH]1 (single isomer, unassigned) [Compound 144] |  |  | 375 nM | 82 | % Activity, L929 androgen receptor functional assay ([2]; 3000 nM, 3 µM): 0%
18 | CC(O)(CS(C)(=O)=O)c1cc2cc([N+](=O)[O-])c(C(F)(F)F)cc2[nH]1 (centres unmarked) [Compound 147] | 0 |  | > 3000 nM |  | % Inhibition, COS Binding ([1]; 3 µM): 6.1%; % Inhibition, L929 androgen receptor functional assay ([2]; 3 µM): 43%
19 | CSCC(C)(O)c1cc2cc([N+](=O)[O-])c(C(F)(F)F)cc2[nH]1 (single isomer, unassigned) [Compound 145] |  | 84.7 | 36.7 nM |  | % Activity, L929 androgen receptor functional assay ([2]; 3000 nM, 3 µM): 1%; % Inhibition, L929 androgen receptor functional assay ([2]; 3 µM): 94%
20 | COc1ccc(SCC(C)(O)c2cc3cc(Cl)c(C(F)(F)F)cc3[nH]2)cc1 (centres unmarked) [Compound 131] | −5 | 84 | > 1600 nM | -4 | 
21 | CC(O)(CSCc1ccccc1)c1cc2cc([N+](=O)[O-])c(C(F)(F)F)cc2[nH]1 (centres unmarked) [Compound 160] | 1 | 84 | 250 nM | 76 | 
22 | CSCC(C)(O)c1cc2cc(Cl)c(C(F)(F)F)cc2[nH]1 (centres unmarked) [Compound 135] | 0 | 98 | 320 nM | 40 | 
23 | CCSCC(C)(O)c1cc2cc([N+](=O)[O-])c(C(F)(F)F)cc2n1C (racemic) [Compound 165] | 1 | 69 | > 3000 nM | 100 | 
24 | COc1ccc(SCC(C)(O)c2cc3cc(Cl)c(C(F)(F)F)cc3n2S(C)(=O)=O)cc1 (racemic) [Compound 130] | −5 |  |  |  | % Inhibition, COS Binding [1]: −8%
25 | CCS(=O)(=O)CC(C)(O)c1cc2cc([N+](=O)[O-])c(C(F)(F)F)cc2[nH]1 (centres unmarked) [Compound 143] | 0 | 68 | > 1500 nM | 67 | 

From patent US7282507B2, “Indole derivatives as selective androgen receptor modulators (SARMS)” (Janssen Pharmaceutica N.V., priority 2004, dated 2007)
